Values of other authors, collected in patent publication US20020107236A1, “Methods of treating sexual dysfunction associated with hypertension” (priority 2000, published 2002).

Test system: male rats
Details: used for treatment of hypertensive disorder in male rats

CCCCc1nc(Cl)c(CO)n1Cc1ccc(-c2ccccc2-c2nn[nH]n2)cc1 [losartan]
preservation of sexual function: advantage in preservation of sexual function
